From paper PMC10321640, “The VIPR2-selective antagonist KS-133 changes macrophage polarization and exerts potent anti-tumor effects as a single agent and in combination with an anti-PD-1 antibody” (PLOS ONE, 2023)
Where a SMILES comes first, the peptide text is derived from it. Bridges are numbered along the chain shown (N, C = ends).

Assay: Water solubility of the peptides, with or without surfactant (appearance)
Format: physicochemical
Procedure: KS-133 and KS-133(P3S) (a substitution of proline at position three of KS-133 with serine) were synthesized at SCRUM Inc. (Tokyo, Japan) using Fmoc-based solid-phase peptide synthesis as previously reported. After reverse phase–high-performance liquid chromatography (RP–HPLC) purification, structural assignment was performed by matrix-assisted laser desorption ionization–time-of-flight mass spectrometry (MS). All analytical data of peptides in this report are presented in S1 Table. Cremophor EL® (CrEL) (09727–14) was purchased from Nacalai Tesque, Inc. (Kyoto, Japan). The nanoformulation of peptide using CrEL was done by basically according to the method as previously reported. First, KS-133 or KS-133(P3S) (20 mg) was dissolved in DMSO (100 μL), giving a concentration of 200 mg/mL. Next, CrEL (100 μL) was mixed with purified water (350 μL). The peptide solution was added dropwise to the stirring CrEL solution and mixed. Then, the peptide/CrEL solution made into a suspension by repeated vortex agitation and sonication at approximately 50°C. Purified water (450 μL) was added to the peptide/CrEL solution, and the same process was repeated. […]
Fig 3 Nanoformulation of peptides using CrEL and their characterization. […] The determined particle size of KS-133 NPs was approximately 15.34 nm, and that of KS-133(P3S) NPs was approximately 15.96 nm. […]

concentration that could be dissolved in DMSO(10%)/CrEL(10%) (Fig 3C, transparent solution immediately after preparation): ≥ 20000 µg/mL
solubility in aqueous solution / water solubility (in words) (without surfactant): poor solubility
SMILES: CC[C@H](C)[C@H](NC(=O)[C@H](CC(C)C)NC(=O)[C@@H]1CC(=O)NCCCC[C@@H]2NC(=O)[C@@H]3CCCN3C(=O)[C@H](CC(C)C)NC(=O)[C@H](Cc3ccc(O)cc3)NC(=O)[C@@H]3CCCN3C(=O)[C@@H]3CCCN3C(=O)[C@@H](NC(C)=O)CSSC[C@H](NC(=O)[C@H](CC(C)C)NC(=O)[C@H](Cc3ccc(O)cc3)NC2=O)C(=O)N1)C(N)=O [KS-133] (Ac-CPPYLPKYLCDLI-NH2; disulfide 1-10; lactam 7-11)
